In patent US9884063B2, “Amido-substituted azole compounds” (Bayer Pharma Aktiengesellschaft, priority 2014, dated 2018):

These compounds were tested against T1, TNKS2 (Homo sapiens, UniProt Q9H2K2) (assay: Modified TNKS2 Assay 2 (auto-parsylation, [3H]-NAD+ SPA)). Conditions: 6 nM TNKS2, 96 well.
T1 sequence (Q9H2K2 1-1166): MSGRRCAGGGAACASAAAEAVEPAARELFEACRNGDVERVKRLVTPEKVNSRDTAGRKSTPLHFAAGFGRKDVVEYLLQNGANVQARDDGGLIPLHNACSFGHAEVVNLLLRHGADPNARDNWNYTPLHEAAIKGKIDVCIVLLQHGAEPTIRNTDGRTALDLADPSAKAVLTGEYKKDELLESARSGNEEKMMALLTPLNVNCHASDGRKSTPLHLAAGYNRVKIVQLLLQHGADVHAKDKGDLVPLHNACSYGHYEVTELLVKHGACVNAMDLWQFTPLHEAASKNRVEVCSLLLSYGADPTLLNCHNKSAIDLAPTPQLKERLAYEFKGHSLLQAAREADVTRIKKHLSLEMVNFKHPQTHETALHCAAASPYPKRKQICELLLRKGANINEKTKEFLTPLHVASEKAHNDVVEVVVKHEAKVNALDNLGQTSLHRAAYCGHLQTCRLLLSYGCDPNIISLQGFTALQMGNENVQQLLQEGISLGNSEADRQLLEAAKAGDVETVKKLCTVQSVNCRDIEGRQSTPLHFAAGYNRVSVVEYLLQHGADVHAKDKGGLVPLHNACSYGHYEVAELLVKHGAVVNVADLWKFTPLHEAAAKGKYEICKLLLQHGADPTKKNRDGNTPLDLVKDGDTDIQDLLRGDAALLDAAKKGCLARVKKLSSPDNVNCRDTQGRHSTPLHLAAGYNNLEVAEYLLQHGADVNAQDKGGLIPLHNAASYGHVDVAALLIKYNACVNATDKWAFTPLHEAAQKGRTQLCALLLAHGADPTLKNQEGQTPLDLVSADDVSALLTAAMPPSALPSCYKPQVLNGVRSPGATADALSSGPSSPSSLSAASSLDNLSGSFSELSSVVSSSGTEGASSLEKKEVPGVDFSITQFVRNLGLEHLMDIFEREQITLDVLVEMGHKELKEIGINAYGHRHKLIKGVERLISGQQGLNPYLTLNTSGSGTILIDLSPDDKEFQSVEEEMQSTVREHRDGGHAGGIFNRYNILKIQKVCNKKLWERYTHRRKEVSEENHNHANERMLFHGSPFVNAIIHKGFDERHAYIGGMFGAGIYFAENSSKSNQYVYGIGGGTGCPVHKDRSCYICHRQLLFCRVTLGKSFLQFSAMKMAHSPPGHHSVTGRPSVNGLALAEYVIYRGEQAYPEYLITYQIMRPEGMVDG
Type: biochemical
Protocol: The potency of selected compounds according to the invention was assessed applying an modified in vitro inhibition assay. Here, the TNKS2 catalyzed NAD^+-dependent ribosylation of the enzyme itself (auto-parsylation) was detected using [^3H]-NAD^+ as substrate and applying the scintillation proximity assay (SPA) method to detect tritium-labeled, parsylated TNKS2. The intensity of the readout signal is proportional to the incorporated [^3H]-NAD^+. Inhibition of TNKS2 leads to a decreased incorporation of [^3H]-NAD^+ and consequently to a lower readout signal intensity. The concentration of a test compound which inhibits the enzyme activity by 50% (corresponds to half of the normed readout signal intensity) is reported as IC50.
The assay was conducted in a 96 well MTP format with the identical TNKS2 enzyme sample and NAD^+ sample as in the histone ribosylation assay with the following modifications: TNKS2 enzyme sample was diluted with a modified assay buffer (50 mM MES pH 7.0, 1 mM DTT, 0.01% Triton X-100) to a final concentration of 6 nM TNKS2 and 10×NAD^+ solution was diluted with the modified assay buffer (s. above) to a final 0.445×NAD^+ solution doped with 100 Bq/ul [^3H]-NAD^+ [Catalog #NET443H050UC, Perkin Elmer, Waltham, Mass., USA]. Substrate solution (10 ul) was incubated with different test compound concentrations (2.5 ul in 10% DMSO in modified assay buffer) or control (2.5 ul 10% DMSO in modified assay buffer only) and enzyme (10 ul) over night at room temperature. Incorporated tritium was measured after addition of 50 ul SPA beads (1 mg/ml) [Catalog #RPNQ0095 20 mg/ml, Perkin Elmer, Waltham, Mass., USA; diluted 1:10 with Dulbecco's phosphate buffered saline, PBS Catalog #D8537, Sigma-Aldrich, Steinheim, Germany] and detection of the photon emission with a beta count plate reader [Wallac MicroBeta®, Perkin Elmer, Waltham, Mass., USA].

Row | SMILES | IC50
1 | CNC(=O)c1nc[nH]c1C(=O)Nc1ccc(NC(=O)c2cccc(Cl)c2Cl)cc1 [Example 1, N^5-{4-[(2,3-dichlorobenzoyl)amino]phenyl}-N^4-methyl-1H-imidazole-4,5-dicarboxamide] | 3300 nM
2 | CNC(=O)c1nc[nH]c1C(=O)Nc1ccc(NC(=O)c2ccc(N(C)C)cc2Cl)cc1 [Example 4, N^5-(4-{[2-chloro-4-(dimethylamino)benzoyl]amino}phenyl)-N^4-methyl-1H-imidazole-4,5-dicarboxamide] | > 10000 nM
3 | CNC(=O)c1nc[nH]c1C(=O)Nc1ccc(NC(=O)c2ccc(F)cc2Cl)c(C)c1 [Example 5, N^5-{4-[(2-chloro-4-fluorobenzoyl)amino]-3-methylphenyl}-N^4-methyl-1H-imidazole-4,5-dicarboxamide] | 770 nM
4 | CNC(=O)c1nc[nH]c1C(=O)Nc1ccc(NC(=O)c2ccncc2Cl)cc1 [Example 6, N^5-{4-[(3-chloroisonicotinoyl)amino]phenyl}-N^4-methyl-1H-imidazole-4,5-dicarboxamide] | 180 nM
5 | CNC(=O)c1nc[nH]c1C(=O)Nc1ccc(NC(=O)c2ccc(Cl)cc2Cl)cc1 [Example 9, N^5-{4-[(2,4-dichlorobenzoyl)amino]phenyl}-N^4-methyl-1H-imidazole-4,5-dicarboxamide] | 80 nM
6 | CC(C)NC(=O)c1nc[nH]c1C(=O)Nc1ccc(NC(=O)c2ccc(F)cc2Cl)cc1 [Example 10, N^5-{4-[(2-chloro-4-fluorobenzoyl)amino]phenyl}-N^4-isopropyl-1H-imidazole-4,5-dicarboxamide] | 350 nM
7 | CNC(=O)c1ncoc1C(=O)Nc1ccc(NC(=O)c2ccc(F)cc2Cl)cc1 [Example 11, N^5-{4-[(2-chloro-4-fluorobenzoyl)amino]phenyl}-N^4-methyl-1,3-oxazole-4,5-dicarboxamide] | 910 nM
8 | CNC(=O)c1nc[nH]c1C(=O)Nc1ccc(NC(=O)c2ccc(F)cc2Cl)cc1 [Example 12, N^5-{4-[(2-chloro-4-fluorobenzoyl)amino]phenyl}-N^4-methyl-1H-imidazole-4,5-dicarboxamide] | 60 nM
9 | CNC(=O)c1nc[nH]c1C(=O)Nc1ccc(NC(=O)c2ccc(F)cc2Cl)nc1 [Example 16, N^5-{6-[(2-chloro-4-fluorobenzoyl)amino]pyridin-3-yl}-N^4-methyl-1H-imidazole-4,5-dicarboxamide] | 100 nM
10 | CNC(=O)c1nc[nH]c1C(=O)Nc1ccc(NC(=O)c2ccccc2C)cc1 [Example 19, N^4-methyl-N^5-{4-[(2-methylbenzoyl)amino]phenyl}-1H-imidazole-4,5-dicarboxamide] | 1800 nM
11 | CNC(=O)c1nc[nH]c1C(=O)Nc1ccc(NC(=O)c2ccc(F)cc2)cc1 [Example 20, N^5-{4-[(4-fluorobenzoyl)amino]phenyl}-N^4-methyl-1H-imidazole-4,5-dicarboxamide] | > 10000 nM
12 | CN(C)C(=O)c1nc[nH]c1C(=O)Nc1ccc(NC(=O)c2ccc(F)cc2Cl)cc1 [Example 24, N^5-{4-[(2-chloro-4-fluorobenzoyl)amino]phenyl}-N^4,N^4-dimethyl-1H-imidazole-4,5-dicarboxamide] | 3400 nM
13 | CNC(=O)c1nc[nH]c1C(=O)Nc1ccc(NC(=O)c2ccc(OCCN(C)C)cc2Cl)cc1 [Example 25, N^5-[4-({2-chloro-4-[2-(dimethylamino)ethoxy]benzoyl}amino)phenyl]-N^4-methyl-1H-imidazole-4,5-dicarboxamide] | 220 nM
14 | CNC(=O)c1nc[nH]c1C(=O)Nc1ccc(NC(=O)c2c(Cl)cccc2Cl)cc1 [Example 26, N^5-{4-[(2,6-dichlorobenzoyl)amino]phenyl}-N^4-methyl-1H-imidazole-4,5-dicarboxamide] | 1600 nM
15 | CNC(=O)c1nc[nH]c1C(=O)Nc1ccc(NC(=O)c2ccccc2Cl)cc1 [Example 27, N^5-{4-[(2-chlorobenzoyl)amino]phenyl}-N^4-methyl-1H-imidazole-4,5-dicarboxamide] | 530 nM
16 | CNC(=O)c1nc[nH]c1C(=O)Nc1ccc(NC(=O)c2ccc(OCCN3CCN(C)CC3)cc2Cl)cc1 [Example 28, N^5-[4-({2-chloro-4-[2-(4-methylpiperazin-1-yl)ethoxy]benzoyl}amino)phenyl]-N^4-methyl-1H-imidazole-4,5-dicarboxamide] | 180 nM
17 | O=C(Nc1ccc(NC(=O)c2[nH]cnc2C(=O)NCC(F)(F)F)cc1)c1ccc(F)cc1Cl [Example 30, N^4-{4-[(2-chloro-4-fluorobenzoyl)amino]phenyl}-N^5-(2,2,2-trifluoroethyl)-1H-imidazole-4,5-dicarboxamide] | 40 nM
18 | CNC(=O)c1nc[nH]c1C(=O)Nc1ccc(NC(=O)c2c(F)cc(F)cc2Cl)cc1 [Example 118, N^5-{4-[(2-chloro-4,6-difluorobenzoyl)amino]phenyl}-N^4-methyl-1H-imidazole-4,5-dicarboxamide] | 140 nM
19 | O=C(NCCN1CCCCC1)c1nc[nH]c1C(=O)Nc1ccc(NC(=O)c2c(F)cc(F)cc2Cl)cc1 [Example 119, N^5-{4-[(2-chloro-4,6-difluorobenzoyl)amino]phenyl}-N^4-[2-(piperidin-1-yl)ethyl]-1H-imidazole-4,5-dicarboxamide] | 5 nM
20 | NC(=O)c1nc[nH]c1C(=O)Nc1ccc(NC(=O)c2ccc(F)cc2Cl)cc1 [Example 121] | 70 nM
21 | CNC(=O)c1nc[nH]c1C(=O)Nc1ccc(NC(=O)c2ccc(O)cc2Cl)cc1 [Example 122, N^5-{4-[(2-chloro-4-hydroxybenzoyl)amino]phenyl}-N^4-methyl-1H-imidazole-4,5-dicarboxamide] | 530 nM
22 | CNC(=O)c1nc[nH]c1C(=O)Nc1ccc(NC(=O)c2cc(OCCN3CCN(C)CC3)ccc2Cl)cc1 [Example 124, N^5-[4-({2-chloro-5-[2-(4-methylpiperazin-1-yl)ethoxy]benzoyl}amino)phenyl]-N^4-methyl-1H-imidazole-4,5-dicarboxamide] | > 10000 nM
23 | CNC(=O)c1nc[nH]c1C(=O)Nc1ccc(NC(=O)c2cc(OCCN3CCCCC3)ccc2Cl)cc1 [Example 125, N^5-[4-({2-chloro-5-[2-(piperidin-1-yl)ethoxy]benzoyl}amino)phenyl]-N^4-methyl-1H-imidazole-4,5-dicarboxamide] | > 10000 nM
24 | CC1CCN(CCNC(=O)c2nc[nH]c2C(=O)Nc2ccc(NC(=O)c3ccc(F)cc3Cl)cc2)CC1 [Example 126, N^5-{4-[(2-chloro-4-fluorobenzoyl)amino]phenyl}-N^4-[2-(4-methylpiperidin-1-yl)ethyl]-1H-imidazole-4,5-dicarboxamide] | 7 nM
25 | COCCNC(=O)c1[nH]cnc1C(=O)Nc1ccc(NC(=O)c2ccc(F)cc2Cl)cc1 [Example 130, N^4-{4-[(2-chloro-4-fluorobenzoyl)amino]phenyl}-N^5-(2-methoxyethyl)-1H-imidazole-4,5-dicarboxamide] | 70 nM
26 | O=C(Nc1ccc(NC(=O)c2nc[nH]c2C(=O)NC2CC2)cc1)c1ccc(F)cc1 [Example 131, N^5-cyclopropyl-N^4-{4-[(4-fluorobenzoyl)amino]phenyl}-1H-imidazole-4,5-dicarboxamide] | > 10000 nM
